Measured values: patent US9884843B2 (Peloton Therapeutics, Inc., priority 2013, dated 2018)
Entries after “also recorded” stand apart in the source; their conditions may differ. Read-outs that look alike come from different tables or passages of the source.

Columns and labels:
786-O-Hif-Luc cells = assay: Luciferase Assay (HIF responsive element reporter); type: cell-based; conditions: 786-O-Hif-Luc cells, about 24 hours, read-out: Mean Luciferease EC50
Procedure: A pool of infected cells were then selected against 2 μg/mL of puromycin (P8833, Sigma) for 10 days followed by limited dilution to select single clones.
Each concentration was tested in triplicate. After about 24 hours, luciferase activity was determined using ONE-Glo Luciferase Assay Reagent (E6110, Promega) following the manufacturer's recommended procedure. EC50 were calculated by using Dotmatics software.

human VEGFA = assay: In vivo PK/PD study: plasma human VEGFA by ELISA; design: species or system SCID/Biege mice; conditions: 786-O tumor-bearing mice, 10 mg/kg oral gavage three times at 12 hour intervals
Procedure: (§1) About 5×10^6 renal cell carcinoma 786-O tumor cells (ATCC® CRL-1932™, VHL and HIF-1α null cell line) in PBS and Matrigel (1:1 in volume) were injected subcutaneously in the right flanks of SCID/Biege mice at 6-7 weeks of age for xenograft development. When the xenografts reached about 450 mm^3 in size, the tumor-bearing mice were randomly divided into two groups (4 mice in each group). […] Animals were sacrificed at 12 hours post last dose. Tumors and plasma were collected from each animal. Total RNA was extracted from the tumors. The mRNA levels of HIF-2α and its respective target genes were determined by qRT-PCR.
The plasma level of human VEGFA was determined by ELISA assay.

[1] = tested on: HIF-2α and HIF-2α-regulated genes in 786-O xenograft; assay: In vivo PK/PD study: tumor mRNA levels by qRT-PCR; design: species or system SCID/Biege mice; conditions: 786-O xenograft mice, 10 mg/kg oral gavage three times at 12 hour intervals, 12 hours post last dose
Procedure: as §1

[2] = tested on: renal cell carcinoma 786-O xenograft; assay: In vivo efficacy study, 786-O xenograft; design: species or system SCID/Biege mice
[3] = tested on: HIF-2α HIS TAG-PASB Domain; assay: biochemical; type: binding; conditions: displacement of Compound 120 probe; mean; read-out: Mean SPA IC50
Summary of the method: (§2)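 Scintillation proximity assay with His-tagged protein bound to SPA beads; test compounds in DMSO displace a tritium-labelled probe ligand, lowering bead light emission. Percent inhibition calculated against high and low controls, with IC50 fitted from it.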

[4] = tested on: VEGF in culture medium of 786-O cells; assay: VEGF ELISA Assay; type: cell-based
Procedure: Four hours later, serial dilutions of 10× compound stocks were made in growth medium from 500×DMSO stocks, and 20 μL of those 10× stocks were added to each well to make final concentrations as follows (μM): 20, 6.7, 2.2, 0.74, 0.25, 0.082, 0.027, 0.009, 0.003, 0.001, 0. Each concentration had duplicated wells. About twenty hours later, the growth medium was removed by suction and each well was supplied with 180 μL of growth medium. About 20 μl freshly-made 10× compound stocks were added to each well. […] The EC50 was calculated by GraphPad Prism using the dose-response-inhibition (four parameter) equation. The cell seeded plate was then subjected to CellTiter-Glo luminescence cell viability assay (Promega) by adding about 50 μL of Celltiter Glo reagent into each well and shaking the plate for 8 minutes at 550 rpm (Thermomixer R, Eppendorf). The luminescence signals were read in a plate reader (3 second delay, 0.5 second/well integration time, Synergy 2 multi Detection Microplate reader) immediately.

[5] = molecular target: HIF-2α HIS TAG-PASB Domain (Homo sapiens, UniProt Q99814); assay: biochemical; type: binding; conditions: displacement of Compound 120 probe; mean; read-out: Mean SPA IC50
HIF-2α HIS TAG-PASB Domain, sequence (Q99814 whole entry, looked up, the tested form may be a part): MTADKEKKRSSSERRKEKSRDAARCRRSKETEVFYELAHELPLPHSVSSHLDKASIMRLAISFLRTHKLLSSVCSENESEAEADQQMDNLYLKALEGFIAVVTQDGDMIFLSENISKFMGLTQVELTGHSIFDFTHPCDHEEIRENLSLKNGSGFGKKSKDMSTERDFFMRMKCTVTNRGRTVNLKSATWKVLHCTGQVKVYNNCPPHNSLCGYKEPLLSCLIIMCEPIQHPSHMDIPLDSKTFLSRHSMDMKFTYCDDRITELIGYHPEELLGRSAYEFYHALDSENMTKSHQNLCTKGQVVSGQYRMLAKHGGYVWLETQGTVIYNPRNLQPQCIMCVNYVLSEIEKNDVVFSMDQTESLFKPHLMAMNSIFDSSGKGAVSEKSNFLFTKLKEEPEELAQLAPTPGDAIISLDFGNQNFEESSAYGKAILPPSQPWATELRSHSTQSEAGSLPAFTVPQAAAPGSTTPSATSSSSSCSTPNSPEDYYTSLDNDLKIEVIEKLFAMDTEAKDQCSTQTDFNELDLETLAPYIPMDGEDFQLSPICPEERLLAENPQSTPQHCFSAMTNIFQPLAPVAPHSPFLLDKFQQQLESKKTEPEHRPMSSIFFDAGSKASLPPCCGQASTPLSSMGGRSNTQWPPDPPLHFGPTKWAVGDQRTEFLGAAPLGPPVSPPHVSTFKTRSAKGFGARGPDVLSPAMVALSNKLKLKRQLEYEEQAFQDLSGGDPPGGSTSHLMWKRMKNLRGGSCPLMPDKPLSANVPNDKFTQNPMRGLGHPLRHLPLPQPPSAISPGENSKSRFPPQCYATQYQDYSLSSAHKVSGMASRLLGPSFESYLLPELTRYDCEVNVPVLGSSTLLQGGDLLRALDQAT
Summary of the method: as §2

EC50 (786-O-Hif-Luc cells; 24 h) [nM] | SMILES | EC50 (786-O-Hif-Luc cells) [nM] | EC50 ([4]; Homo sapiens, 786-0) [nM] | IC50 [5] [nM] | other results
95 | N#Cc1cncc(Oc2ccc3c(c2Br)[C@@H](O)C(F)(F)S3(=O)=O)c1 [Compound 78, (R)-5-((4-Bromo-2,2-difluoro-3-hydroxy-1,1-dioxido-2,3-dihydrobenzo[b]thiophen-5-yl)oxy)nicotinonitrile] |  | 330 | 120 | 
18 | C[C@@]1(O)c2c(ccc(Oc3cc(F)cc(C#N)c3)c2C#N)S(=O)(=O)C1(F)F [Compound 112, (R)-5-(3-cyano-5-fluorophenoxy)-2,2-difluoro-3-hydroxy-3-methyl-2,3-dihydrobenzo[b]thiophene-4-carbonitrile 1,1-dioxide] |  | 31 |  | 

More lines, now with the values behind:

SMILES | EC50 (786-O-Hif-Luc cells; 24 h) [nM] | EC50 (786-O-Hif-Luc cells) [nM] | EC50 ([4]; Homo sapiens, 786-0) [nM] | IC50 [5] [nM] | other results
N#Cc1cc(F)cc(Oc2ccc3c(c2C(F)F)[C@@H](O)C(F)(F)S3(=O)=O)c1 [Compound 3, (R)-3-((4-(Difluoromethyl)-2,2-difluoro-3-hydroxy-1,1-dioxido-2,3-dihydrobenzo[b]thiophen-5-yl)oxy)-5-fluorobenzonitrile] |  | 7 |  |  | Plasma level of human VEGFA (human VEGFA): reduced; also recorded: undetectable level; Tumor mRNA for HIF-1α and HIF-1α specific target genes (PGK1 and PDK1) [1]: no significant effect; also recorded: no significant changes; Tumor mRNA for HIF-2α and HIF-2α specific target genes (PAI-1 and CCND1) [1]: reduced; also recorded: significant reduction; Effect on tumor size ([2]; 10 mg/kg b.i.d. oral gavage for 21 days, versus vehicle): tumor size reduction and regression; also recorded: statistically significant reduction of tumor size; Tumor size Mean ± SEM ([2]; 10 mg/kg b.i.d. oral gavage, after 21 days of dosing): 57 ± 5.6 mm^3; IC50 [3]: […]
N#Cc1c(Oc2cc(F)cc(Cl)c2)ccc2c1C(O)CS2(=O)=O (stereo not shown) [Compound 7, 5-(3-chloro-5-fluorophenoxy)-3-hydroxy-2,3-dihydrobenzo[b]thiophene-4-carbonitrile 1,1-dioxide] |  | 450 | 330 |  | 
O=S1(=O)c2ccc(Oc3cc(F)cc(Cl)c3)c(Br)c2C(O)C1(F)F (stereo not shown) [Compound 9, 4-Bromo-5-(3-chloro-5-fluorophenoxy)-2,2-difluoro-3-hydroxy-2,3-dihydrobenzo[b]thiophene 1,1-dioxide] |  | 50 | 65 | 2 | 
N=S1(=O)c2ccc(Oc3cc(F)cc(F)c3)c(C(F)F)c2C(O)C1(F)F (stereo not shown) [Compound 53, 4-(difluoromethyl)-5-(3,5-difluorophenoxy)-2,2-difluoro-3-hydroxy-1-imino-2,3-dihydro-1H-1λ^4-benzo[b]thiophene 1-oxide] |  | 39 |  |  | EC50 [4]: 67 nM
